Experiments:
Experiment in all cases: Test B pre-/postemergence plant response
Assay type in all cases: in vivo
[1] = system: woolly cupgrass (Eriochloa villosa)
Procedure, shortened: (§1)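 Seeds were sown and sprayed preemergence, while plants at 2 to 18 cm (1- to 4-leaf stage) got postemergence sprays. Compounds were formulated in a non-phytotoxic solvent mixture with surfactant. After 13 to 15 days in a greenhouse, injury was rated visually against untreated controls, 0 (no effect) to 100 (complete control).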

[2] = system: pigweed (Amaranthus retroflexus)
Procedure, shortened: as §1

[3] = system: blackgrass (Alopecurus myosuroides)
Procedure, shortened: as §1

[4] = system: common (oilseed) sunflower (Helianthus annuus); details: Preemergence
Procedure, shortened: as §1

kochia (Kochia scoparia) = details: Postemergence
Procedure, shortened: as §1

[5] = system: giant foxtail (Setaria faberii)
Procedure, shortened: as §1

[6] = system: downy bromegrass (Bromus tectorum)
Procedure, shortened: as §1

[7] = system: catchweed bedstraw (Galium aparine); details: Preemergence
Procedure, shortened: as §1

[8] = system: johnsongrass (Sorghum halepense)
Procedure, shortened: as §1

[9] = system: morningglory (Ipomoea coccinea)
Procedure, shortened: as §1

[10] = system: green foxtail (Setaria viridis)
Procedure, shortened: as §1

[11] = system: eastern black (E.B.) nightshade (Solanum ptycanthum); details: Preemergence
Procedure, shortened: as §1

corn (Zea mays) = system: corn (Zea mays)
Procedure, shortened: as §1

[12] = system: surinam grass (Brachiaria decumbens)
Procedure, shortened: as §1

[13] = Postemergence, 31 g ai/ha, scale 0 to 100, 0 no effect, 100 complete control
[14] = Postemergence, 62 g ai/ha, scale 0 to 100
[15] = Postemergence, 125 g ai/ha, scale 0 to 100
[16] = Postemergence, 250 g ai/ha, scale 0 to 100
[17] = Preemergence, 31 g ai/ha, 0 to 100 scale, 0 no effect, 100 complete control
[18] = Preemergence, 62 g ai/ha, scale 0 to 100
[19] = Preemergence, 125 g ai/ha, scale 0 to 100
[20] = Preemergence, 250 g ai/ha, scale 0 to 100
[21] = 31 g ai/ha, 0 to 100 scale, 0 no effect, 100 complete control

SMILES: CCc1cc(-c2ccc(C(F)(F)F)cc2)nn1-c1c(O)c(C)nn(C)c1=O [Compound 16]
- Plant response rating, Cupgrass, Woolly [1, 13]: 80
- Plant response rating, Cupgrass, Woolly [1, 14]: 95
- Plant response rating, Cupgrass, Woolly [1, 15]: 100
- Plant response rating, Cupgrass, Woolly [1, 16]: 100
- Plant response rating, Cupgrass, Woolly [1, 17]: 0
- Plant response rating, Cupgrass, Woolly [1, 18]: 25
- Plant response rating, Cupgrass, Woolly [1, 19]: 70
- Plant response rating, Cupgrass, Woolly [1, 20]: 95
- Plant response rating, Pigweed [2, 13]: 0
- Plant response rating, Pigweed [2, 14]: 0
- Plant response rating, Pigweed [2, 15]: 0
- Plant response rating, Pigweed [2, 16]: 0
- Plant response rating, Pigweed [2, 18]: 0
- Plant response rating, Pigweed [2, 19]: 0
- Plant response rating, Pigweed [2, 20]: 0
- Blackgrass plant response rating ([3]; 250 g ai/ha, preemergence, 0-100 scale): 100
- Plant response rating, Blackgrass [3, 13]: 98
- Plant response rating, Blackgrass [3, 14]: 100
- Plant response rating, Blackgrass [3, 15]: 100
- Plant response rating, Blackgrass [3, 16]: 100
- Plant response rating, Blackgrass [3, 17]: 100
- Plant response rating, Blackgrass [3, 18]: 100
- Plant response rating, Blackgrass [3, 19]: 100
- Plant response rating, Sunflower [4, 21]: 0
- Plant response rating, Sunflower ([4]; 62 g ai/ha, scale 0 to 100): 0
- Plant response rating, Sunflower ([4]; 125 g ai/ha, scale 0 to 100): 0
- Plant response rating, Sunflower ([4]; 250 g ai/ha, scale 0 to 100): 0
- Plant response rating, Kochia (kochia (Kochia scoparia); 31 g ai/ha, scale 0 to 100, 0 no effect, 100 complete control): 0
- Plant response rating, Kochia (kochia (Kochia scoparia); 62 g ai/ha, scale 0 to 100): 65
- Plant response rating, Kochia (kochia (Kochia scoparia); 125 g ai/ha, scale 0 to 100): 98
- Plant response rating, Kochia (kochia (Kochia scoparia); 250 g ai/ha, scale 0 to 100): 100
- Plant response rating, Foxtail, Giant [5, 13]: 85
- Plant response rating, Foxtail, Giant [5, 14]: 98
- Plant response rating, Foxtail, Giant [5, 15]: 100
- Plant response rating, Foxtail, Giant [5, 16]: 100
- Plant response rating, Foxtail, Giant [5, 17]: 0
- Plant response rating, Foxtail, Giant [5, 18]: 0
- Plant response rating, Foxtail, Giant [5, 19]: 40
- Plant response rating, Foxtail, Giant [5, 20]: 70
- Plant response rating, Bromegrass, Downy [6, 13]: 60
- Plant response rating, Bromegrass, Downy [6, 14]: 70
- Plant response rating, Bromegrass, Downy [6, 15]: 90
- Plant response rating, Bromegrass, Downy [6, 16]: 100
- Plant response rating, Bromegrass, Downy [6, 17]: 90
- Plant response rating, Bromegrass, Downy [6, 18]: 100
- Plant response rating, Bromegrass, Downy [6, 19]: 100
- Plant response rating, Bromegrass, Downy ([6]; Preemergence, 250 g ai/ha, scale 0 to 100 (0 no effect, 100 complete control)): 100
- Plant response rating, Galium [7, 21]: 0
- Plant response rating, Galium ([7]; 62 g ai/ha, scale 0 to 100): 0
- Plant response rating, Galium ([7]; 125 g ai/ha, scale 0 to 100): 0
- Plant response rating, Galium ([7]; 250 g ai/ha, scale 0 to 100): 0
- Plant response rating, Johnsongrass [8, 13]: 98
- Plant response rating, Johnsongrass [8, 14]: 100
- Plant response rating, Johnsongrass [8, 15]: 100
- Plant response rating, Johnsongrass [8, 16]: 100
- Plant response rating, Johnsongrass [8, 17]: 25
- Plant response rating, Johnsongrass [8, 18]: 70
- Plant response rating, Johnsongrass [8, 19]: 100
- Plant response rating, Johnsongrass [8, 20]: 100
- Plant response rating, Morningglory [9, 13]: 0
- Plant response rating, Morningglory [9, 14]: 0
- Plant response rating, Morningglory [9, 15]: 0
- Plant response rating, Morningglory [9, 16]: 0
- Plant response rating, Morningglory [9, 17]: 0
- Plant response rating, Morningglory [9, 18]: 0
- Plant response rating, Morningglory [9, 19]: 0
- Plant response rating, Morningglory [9, 20]: 0
- Plant response rating, Foxtail, Green [10, 13]: 95
- Plant response rating, Foxtail, Green [10, 14]: 98
- Plant response rating, Foxtail, Green [10, 15]: 100
- Plant response rating, Foxtail, Green [10, 16]: 100
- Plant response rating, Foxtail, Green [10, 17]: 100
- Plant response rating, Foxtail, Green [10, 18]: 100
- Plant response rating, Foxtail, Green [10, 19]: 100
- Plant response rating, Foxtail, Green [10, 20]: 100
- Plant response rating, Nightshade, E. B. [11, 21]: 0
- Plant response rating, Nightshade, E. B. ([11]; 62 g ai/ha, scale 0 to 100): 0
- Plant response rating, Nightshade, E. B. ([11]; 125 g ai/ha, scale 0 to 100): 0
- Plant response rating, Nightshade, E. B. ([11]; 250 g ai/ha, scale 0 to 100): 0
- Plant response rating, Corn (corn (Zea mays); [13]): 98
- Plant response rating, Corn (corn (Zea mays); [14]): 98
- Plant response rating, Corn (corn (Zea mays); [15]): 100
- Plant response rating, Corn (corn (Zea mays); [16]): 100
- Plant response rating, Corn (corn (Zea mays); [17]): 0
- Plant response rating, Corn (corn (Zea mays); [18]): 100
- Plant response rating, Corn (corn (Zea mays); [19]): 100
- Plant response rating, Corn (corn (Zea mays); [20]): 100
- Plant response rating, Surinam Grass [12, 13]: 90
- Plant response rating, Surinam Grass [12, 14]: 100
- Plant response rating, Surinam Grass [12, 15]: 100
- Plant response rating, Surinam Grass [12, 16]: 100
- Plant response rating, Surinam Grass [12, 17]: 45
- Plant response rating, Surinam Grass [12, 18]: 55
- Plant response rating, Surinam Grass [12, 19]: 95
- Plant response rating, Surinam Grass [12, 20]: 100

Source: US20100267561A1, “HERBICIDAL PYRIDAZINONE DERIVATIVES” (priority 2007, published 2010)
